According to article PMC10847306, “The antibacterial activity and mechanism of a novel peptide MR-22 against multidrug-resistant Escherichia coli” (Frontiers in Cellular and Infection Microbiology, 2024):
In brackets after ≈: the same amount, converted by molar mass.

Tests used:
Experiment in all cases: microbe, parasite or virus in culture
[1] = system: E. coli ATCC 25922; conditions: for susceptibility category (S/I/R) given with the MIC: E. coli ATCC 25922; for MIC: Escherichia coli, ATCC25922, 18 h
Procedure: (§1) The MIC were determined by a micro dilution method in Mueller-Hinton broth (MHB) ([Cuenca-Estrella et al., 2010]). The final concentration of bacterial suspension in MHB were 1.0×10^6 CFU/mL. The final concentration of MR-22 ranged 1 ~ 256 μg/mL in 96 wells plate broth at 37°C for 16~18 h. Imipenem was employed as positive control, bacterial grown without treatment as negative control and MHB as blank control. MIC determination was performed by reading the OD600 nm. Take 100 μL samples in holes that have never seen bacterial growth and place them on the LB agar board. The concentration of MR-22 with no bacterial growth was defined as the MBC.

[2] = system: E. coli clinical strain E17; conditions: for MIC: Escherichia coli, 18 h; for susceptibility category (S/I/R) given with the MIC: strain E17
Procedure: (§2) The clinical strains used in this study were obtained from a tertiary healthcare facility located in Guiyang, a city situated within the Guizhou Province of China. The E. coli ATCC 25922 was obtained from the Key and Characteristic Laboratory of Modern Pathogen Biology at Guizhou Medical University in Guiyang, China. All strains were stored at –80°C in LB medium and routinely cultured at LB medium at 37°C.
as §1

[3] = system: E. coli clinical strain E09; conditions: for MIC: Escherichia coli, 18 h; for susceptibility category (S/I/R) given with the MIC: strain E09
Procedure: as §2, §1

[4] = system: E. coli clinical strain E03; conditions: for MIC: Escherichia coli, 18 h; for susceptibility category (S/I/R) given with the MIC: strain E03
Procedure: as §2, §1

[5] = system: E. coli clinical strain E12; conditions: for MIC: Escherichia coli, 18 h; for susceptibility category (S/I/R) given with the MIC: strain E12
Procedure: as §2, §1

[6] = system: E. coli clinical strain E08; conditions: for MIC: Escherichia coli, 18 h; for susceptibility category (S/I/R) given with the MIC: strain E08
Procedure: as §2, §1

[7] = system: E. coli clinical strain E01; conditions: for MIC: Escherichia coli, 18 h; for susceptibility category (S/I/R) given with the MIC: strain E01
Procedure: as §2, §1

[8] = system: E. coli clinical strain E16; conditions: for MIC: Escherichia coli, 18 h; for susceptibility category (S/I/R) given with the MIC: strain E16
Procedure: as §2, §1

[9] = system: E. coli clinical strain E21; conditions: for MIC: Escherichia coli, 18 h; for susceptibility category (S/I/R) given with the MIC: strain E21
Procedure: as §2, §1

[10] = system: E. coli clinical strain E11; conditions: for MIC: Escherichia coli, 18 h; for susceptibility category (S/I/R) given with the MIC: strain E11
Procedure: as §2, §1

[11] = system: E. coli clinical strain E02; conditions: for MIC: Escherichia coli, 18 h; for susceptibility category (S/I/R) given with the MIC: strain E02
Procedure: as §2, §1

[12] = system: E. coli clinical strain E13; conditions: for MIC: Escherichia coli, 18 h; for susceptibility category (S/I/R) given with the MIC: strain E13
Procedure: as §2, §1

[13] = system: E. coli clinical strain E22; conditions: for MIC: Escherichia coli, 18 h; for susceptibility category (S/I/R) given with the MIC: strain E22
Procedure: as §2, §1

[14] = system: E. coli clinical strain E14; conditions: for MIC: Escherichia coli, 18 h; for susceptibility category (S/I/R) given with the MIC: strain E14
Procedure: as §2, §1

[15] = system: E. coli clinical strain E15; conditions: for MIC: Escherichia coli, 18 h; for susceptibility category (S/I/R) given with the MIC: strain E15
Procedure: as §2, §1

[16] = system: E. coli clinical strain E10; conditions: for MIC: Escherichia coli, 18 h; for susceptibility category (S/I/R) given with the MIC: strain E10
Procedure: as §2, §1

[17] = system: E. coli clinical strain E04; conditions: for MIC: Escherichia coli, 18 h; for susceptibility category (S/I/R) given with the MIC: strain E04
Procedure: as §2, §1

[18] = system: E. coli clinical strain E05; conditions: for MIC: Escherichia coli, 18 h; for susceptibility category (S/I/R) given with the MIC: strain E05
Procedure: as §2, §1

[19] = system: E. coli clinical strain E06; conditions: for MIC: Escherichia coli, 18 h; for susceptibility category (S/I/R) given with the MIC: strain E06
Procedure: as §2, §1

[20] = system: E. coli clinical strain E19; conditions: for MIC: Escherichia coli, 18 h; for susceptibility category (S/I/R) given with the MIC: strain E19
Procedure: as §2, §1

[21] = system: E. coli clinical strain E20; conditions: for MIC: Escherichia coli, 18 h; for susceptibility category (S/I/R) given with the MIC: strain E20
Procedure: as §2, §1

[22] = system: E. coli clinical strain E07; conditions: for MIC: Escherichia coli, 18 h; for susceptibility category (S/I/R) given with the MIC: strain E07
Procedure: as §2, §1

[23] = system: E. coli clinical strain E18; conditions: for MIC: Escherichia coli, 18 h; for susceptibility category (S/I/R) given with the MIC: strain E18
Procedure: as §2, §1

For `CO/N=C(\C(=O)N[C@@H]1C(=O)N2C(C(=O)[O-])=C(C[N+]3(C)CCCC3)CS[C@H]12)c1csc(N)n1` [FEP, cefepime], the “susceptibility category (S/I/R) given with the MIC” value (shortened to “susceptibility category”) [1] was “S”, the MIC [1] was no more than 2 µg/mL and the MIC [2] was no more than 2 µg/mL. For the same molecule, the “susceptibility category” value [2] was “S”, the MIC [3] was no more than 2 µg/mL and the “susceptibility category” value [3] was “S”. For the same molecule, the MIC [4] was 16 µg/mL (≈ 33.3 µM), the “susceptibility category” value [4] was “R” and the MIC [5] was 4 µg/mL (≈ 8.32 µM). The “susceptibility category” value [5] was “I”, the MIC [6] was no more than 2 µg/mL and the “susceptibility category” value [6] was “S”. The MIC [7] was no more than 2 µg/mL, the “susceptibility category” value [7] was “S” and the MIC [8] was no more than 2 µg/mL. The “susceptibility category” value [8] was “S”, the MIC [9] was 16 µg/mL (≈ 33.3 µM) and the “susceptibility category” value [9] was “R”. The MIC [10] was greater than 16 µg/mL, the “susceptibility category” value [10] was “R” and the MIC [11] was greater than 16 µg/mL. For the same molecule, the “susceptibility category” value [11] was “R”, the MIC [12] was no more than 2 µg/mL and the “susceptibility category” value [12] was “S”. For the same molecule, the MIC [13] was no less than 32 µg/mL, the “susceptibility category” value [13] was “R” and the MIC [14] was 16 µg/mL (≈ 33.3 µM). The “susceptibility category” value [14] was “R”, the MIC [15] was no more than 2 µg/mL and the “susceptibility category” value [15] was “S”. For the same molecule, the MIC [16] was 16 µg/mL (≈ 33.3 µM), the “susceptibility category” value [16] was “R” and the MIC [17] was greater than 16 µg/mL. For the same molecule, the “susceptibility category” value [17] was “R”, the MIC [18] was greater than 16 µg/mL and the “susceptibility category” value [18] was “R”. The MIC [19] was greater than 16 µg/mL, the “susceptibility category” value [19] was “R” and the MIC [20] was 16 µg/mL (≈ 33.3 µM). For the same molecule, the “susceptibility category” value [20] was “R”, the MIC [21] was 16 µg/mL (≈ 33.3 µM) and the “susceptibility category” value [21] was “R”. For the same molecule, the MIC [22] was greater than 16 µg/mL, the “susceptibility category” value [22] was “R” and the MIC [23] was 16 µg/mL (≈ 33.3 µM). The “susceptibility category” value [23] was “R”.

For `C[C@H]1COc2c(N3CCN(C)CC3)c(F)cc3c(=O)c(C(=O)O)cn1c23` [LEV, levofloxacin], the “susceptibility category” value [1] was “S”, the MIC [1] was no more than 0.5 µg/mL and the MIC [2] was greater than 8 µg/mL. For the same molecule, the “susceptibility category” value [2] was “R”, the MIC [3] was 8 µg/mL (≈ 22.1 µM) and the “susceptibility category” value [3] was “R”. For the same molecule, the MIC [4] was 8 µg/mL (≈ 22.1 µM), the “susceptibility category” value [4] was “R” and the MIC [5] was greater than 8 µg/mL. For the same molecule, the “susceptibility category” value [5] was “R”, the MIC [6] was no more than 0.5 µg/mL and the “susceptibility category” value [6] was “S”. The MIC [7] was no more than 0.5 µg/mL, the “susceptibility category” value [7] was “S” and the MIC [8] was 1 µg/mL (≈ 2.77 µM). The “susceptibility category” value [8] was “I”, the MIC [9] was no more than 0.5 µg/mL and the “susceptibility category” value [9] was “S”. For the same molecule, the MIC [10] was no more than 0.5 µg/mL, the “susceptibility category” value [10] was “S” and the MIC [11] was no more than 0.5 µg/mL. The “susceptibility category” value [11] was “S”, the MIC [12] was no more than 0.5 µg/mL and the “susceptibility category” value [12] was “S”. For the same molecule, the MIC [13] was greater than 8 µg/mL, the “susceptibility category” value [13] was “R” and the MIC [14] was greater than 8 µg/mL. For the same molecule, the “susceptibility category” value [14] was “R”, the MIC [15] was 0.5 µg/mL (≈ 1.38 µM) and the “susceptibility category” value [15] was “S”. For the same molecule, the MIC [16] was no more than 0.5 µg/mL, the “susceptibility category” value [16] was “S” and the MIC [17] was greater than 8 µg/mL. For the same molecule, the “susceptibility category” value [17] was “R”, the MIC [18] was no more than 0.5 µg/mL and the “susceptibility category” value [18] was “S”. For the same molecule, the MIC [19] was 8 µg/mL (≈ 22.1 µM), the “susceptibility category” value [19] was “R” and the MIC [20] was greater than 8 µg/mL. For the same molecule, the “susceptibility category” value [20] was “R”, the MIC [21] was greater than 8 µg/mL and the “susceptibility category” value [21] was “R”. The MIC [22] was no more than 0.5 µg/mL, the “susceptibility category” value [22] was “S” and the MIC [23] was greater than 8 µg/mL. The “susceptibility category” value [23] was “R”.

In the case of `CN(C)[C@@H]1C(O)=C(C(N)=O)C(=O)[C@@]2(O)C(O)=C3C(=O)c4c(O)cccc4[C@@](C)(O)[C@H]3C[C@@H]12` [TET, tetracycline], the “susceptibility category” value [1] is reported as “S”, the MIC [1] is reported as no more than 0.5 µg/mL and the MIC [2] is reported as no more than 0.5 µg/mL. For the same molecule, the “susceptibility category” value [2] was “S”, the MIC [3] was greater than 8 µg/mL and the “susceptibility category” value [3] was “R”. The MIC [4] was greater than 8 µg/mL, the “susceptibility category” value [4] was “R” and the MIC [5] was greater than 8 µg/mL. The “susceptibility category” value [5] was “R”, the MIC [6] was greater than 8 µg/mL and the “susceptibility category” value [6] was “R”. The MIC [7] was no more than 0.5 µg/mL, the “susceptibility category” value [7] was “S” and the MIC [8] was no more than 0.5 µg/mL. For the same molecule, the “susceptibility category” value [8] was “S”, the MIC [9] was no more than 0.5 µg/mL and the “susceptibility category” value [9] was “S”. For the same molecule, the MIC [10] was greater than 8 µg/mL, the “susceptibility category” value [10] was “R” and the MIC [11] was greater than 8 µg/mL. For the same molecule, the “susceptibility category” value [11] was “R”, the MIC [12] was no more than 0.5 µg/mL and the “susceptibility category” value [12] was “S”. For the same molecule, the MIC [13] was no more than 0.5 µg/mL, the “susceptibility category” value [13] was “S” and the MIC [14] was greater than 8 µg/mL. For the same molecule, the “susceptibility category” value [14] was “R”, the MIC [15] was no more than 0.5 µg/mL and the “susceptibility category” value [15] was “S”. The MIC [16] was no more than 0.5 µg/mL, the “susceptibility category” value [16] was “S” and the MIC [17] was greater than 8 µg/mL. The “susceptibility category” value [17] was “R”, the MIC [18] was greater than 8 µg/mL and the “susceptibility category” value [18] was “R”. The MIC [19] was greater than 8 µg/mL, the “susceptibility category” value [19] was “R” and the MIC [20] was no more than 0.5 µg/mL. The “susceptibility category” value [20] was “S”, the MIC [21] was no more than 0.5 µg/mL and the “susceptibility category” value [21] was “S”. For the same molecule, the MIC [22] was greater than 8 µg/mL, the “susceptibility category” value [22] was “R” and the MIC [23] was no more than 0.5 µg/mL. For the same molecule, the “susceptibility category” value [23] was “S”.
